Structures can show the parent of a compound that is named as a salt. Where two headings read alike, the source gives them in different places.
Columns and labels:
[1] = test system: NCI-H292 lung cancer cells; assay: FDA drug screening, complete media vs cholesterol-free media with simvastatin (TABLE 2); format: cell-based, human
[2] = test system: NCI-H292 lung cancer cells; assay: FDA drug screening, complete media vs cholesterol-free media without statin (TABLE 1); format: cell-based, human
[3] = NCI-H292 cells, FDA drug library screen, cholesterol-free media with simvastatin 0.04 μM
[4] = NCI-H292 cells, FDA drug library screen, complete media
[5] = complete media minus cholesterol-free media + simvastatin, >0 enhanced anti-cancer activity, about 0 neutral, <0 antagonist
[6] = Complete minus Cholesterol-free, greater than 0 enhanced anti-cancer activity, about 0 neutral, below 0 antagonists
[7] = NCI-H292 cells in cholesterol-free media without statin
[8] = NCI-H292 cells in complete media
[9] = NCI-H292 cells, cholesterol-free media with simvastatin 0.04 μM, FDA drug library screen (TABLE 2)
[10] = NCI-H292 cells, complete media, FDA drug library screen (TABLE 2)
[11] = complete media minus cholesterol-free media + simvastatin (0.04 μM), >0 enhanced anti-cancer activity, about 0 neutral, <0 antagonist
[12] = NCI-H292 cells, cholesterol-free media without statin
[13] = complete vs cholesterol-free media, greater than 0 enhanced anti-cancer activity, about 0 neutral, below 0 antagonists
[14] = Complete minus Cholesterol-free, greater than 0 enhanced anti-cancer activity, about 0 neutral, below 0 antagonist
[15] = NCI-H292 cells, FDA drug library screen, cholesterol-free media without statin
[16] = complete media vs cholesterol-free media + simvastatin (0.04 μM), >0 enhanced anti-cancer activity, about 0 neutral, <0 antagonist
[17] = NCI-H292 cells, FDA library drug in cholesterol-free media with simvastatin 0.04 μM
[18] = NCI-H292 cells, FDA library drug in complete media
[19] = Complete minus Cholesterol-free, >0 enhanced anti-cancer activity, about 0 neutral, <0 antagonist
[20] = NCI-H292 cells, cholesterol-free media without statin, FDA drug library screen
[21] = NCI-H292 cells, complete media, FDA drug library screen
[22] = NCI-H292 cells, cholesterol-free media with simvastatin 0.04 μM, cell growth value in FDA drug screen
[23] = NCI-H292 cells, complete media, cell growth value in FDA drug screen
[24] = NCI-H292 cells, drug in cholesterol-free media with simvastatin 0.04 μM
[25] = NCI-H292 cells, drug in complete media
[26] = complete vs cholesterol-free media, >0 enhanced anti-cancer activity, about 0 neutral, <0 antagonist

Molecule: C[C@]12CC[C@@H]3c4ccc(OS(=O)(=O)O)cc4CC[C@H]3[C@@H]1CCC2=O [Estropipate]
- Cholesterol-free media + simvastatin (0.04 μM) [1, 3]: 0.9313
- Complete Media [1, 4]: 1.077
- Difference [1, 5]: 0.15
- Difference [2, 6]: −0.48
- Cholesterol-free [2, 7]: 1.475
- Complete [2, 8]: 0.9927

Molecule: Nc1nc2nc[nH]c2c(=S)[nH]1 [6-Thioguanine]
- Cholesterol-free media + simvastatin (0.04 μM) [1, 9]: 0.7013
- Complete Media [1, 10]: 0.7052
- Difference [1, 11]: 0.00
- Cholesterol-free [2, 12]: 0.7053
- Complete ([2]; NCI-H292 cells, complete media): 0.3153
- Difference [2, 13]: −0.39

Molecule: O=c1[nH]c(=O)n([C@H]2C[C@H](O)[C@@H](CO)O2)cc1C(F)(F)F [Trifluridine]
- Cholesterol-free media + simvastatin (0.04 μM) [1, 9]: 0.1119
- Complete Media [1, 10]: 0.1066
- Difference [1, 11]: −0.01
- Difference [2, 14]: −0.14
- Cholesterol-free [2, 15]: 0.2875
- Complete [2, 4]: 0.145

Molecule: CC(C)(C)c1cc(C(C)(C)C)c(NC(=O)c2c[nH]c3ccccc3c2=O)cc1O [Ivacaftor]
- Cholesterol-free media + simvastatin (0.04 μM) [1, 3]: 1.021
- Complete Media [1, 4]: 0.931
- Difference [1, 16]: −0.09
- Difference [2, 14]: −0.10
- Cholesterol-free [2, 15]: 0.9826
- Complete [2, 4]: 0.878

Molecule: C[C@@H](CN1CC(=O)NC(=O)C1)N1CC(=O)NC(=O)C1 [Dexrazoxane (hydrochloride)]
- Cholesterol-free media + simvastatin (0.04 μM) [1, 17]: 1.279
- Complete Media [1, 18]: 1.002
- Difference [1, 16]: −0.28
- Difference [2, 19]: 0.03
- Cholesterol-free [2, 20]: 0.9516
- Complete [2, 21]: 0.9799

Molecule: COc1ccc(-c2cc(C(F)F)nn2-c2ccc(S(N)(=O)=O)cc2)cc1F [Deracoxib]
- Cholesterol-free media + simvastatin (0.04 μM) [1, 3]: 1.651
- Complete Media [1, 4]: 1.821
- Difference [1, 5]: 0.17
- Difference [2, 6]: −0.50
- Cholesterol-free [2, 7]: 1.682
- Complete [2, 8]: 1.181

Molecule: Nc1ccn([C@@H]2O[C@H](CO)[C@@H](O)[C@@H]2O)c(=O)n1 [Cytarabine (hydrochloride)]
- Cholesterol-free media + simvastatin (0.04 μM) [1, 9]: 0.3553
- Complete Media [1, 10]: 0.3011
- Difference [1, 11]: −0.05
- Difference [2, 14]: −0.08
- Cholesterol-free [2, 15]: 0.1883
- Complete [2, 4]: 0.1064

Molecule: Orphenadrine (citrate)
- Complete Media [1, 4]: 1.525
- Difference [1, 5]: 0.38
- Difference [2, 14]: −0.10
- Cholesterol-free [2, 15]: 0.8697
- Complete [2, 4]: 0.768

Molecule: O=c1c(-c2ccc(O)cc2)coc2c([C@@H]3O[C@H](CO)[C@@H](O)[C@H](O)[C@H]3O)c(O)ccc12 [Puerarin]
- Cholesterol-free media + simvastatin (0.04 μM) [1, 22]: 0.9456
- Complete Media [1, 23]: 1.081
- Difference [1, 5]: 0.14
- Difference [2, 19]: −0.27
- Cholesterol-free [2, 12]: 1.203
- Complete ([2]; NCI-H292 cells, complete media): 0.9306

Molecule: Emamectin (Benzoate)
- Cholesterol-free media + simvastatin (0.04 μM) [1, 3]: 0.006354
- Complete Media [1, 4]: 0.4189
- Difference ([1]; complete media minus cholesterol-free media + simvastatin, […]): 0.41
- Difference ([2]; Complete minus Cholesterol-free, […]): 0.02
- Cholesterol-free [2, 20]: 0.001259
- Complete [2, 21]: 0.01673

Molecule: CCCOC(=O)c1cc(O)c(O)c(O)c1 [Propyl gallate]
- Cholesterol-free media + simvastatin (0.04 μM) [1, 24]: 1.306
- Complete Media [1, 25]: 1.135
- Difference [1, 16]: −0.17
- Cholesterol-free [2, 12]: 1.541
- Complete ([2]; NCI-H292 cells, complete media): 1.125
- Difference [2, 13]: −0.42

Molecule: C/C(=C\c1csc(C)n1)[C@@H]1C[C@@H]2O[C@]2(C)CCC[C@H](C)[C@H](O)[C@@H](C)C(=O)C(C)(C)[C@@H](O)CC(=O)N1 [Ixabepilone]
- Cholesterol-free media + simvastatin (0.04 μM) [1, 9]: 0.1261
- Complete Media [1, 10]: 0.1336
- Difference [1, 11]: 0.01
- Difference [2, 19]: −0.01
- Cholesterol-free [2, 20]: 0.1019
- Complete [2, 21]: 0.09155

Molecule: C[S+](CC[C@H](N)C(=O)[O-])C[C@H]1O[C@@H](n2cnc3c(N)ncnc32)[C@H](O)[C@@H]1O.Cc1ccc(S(=O)(=O)O)cc1.O=S(=O)(O)O.O=S(=O)(O)O (some centres unmarked)
- Cholesterol-free media + simvastatin (0.04 μM) [1, 3]: 1.19
- Complete Media [1, 4]: 1.075
- Difference [1, 16]: −0.12
- Difference [2, 14]: −0.11
- Cholesterol-free [2, 15]: 1.112
- Complete [2, 4]: 1.004

Molecule: CC(=O)O[C@H]1CC[C@@]2(C)C(=CC[C@@H]3[C@@H]2CC[C@]2(C)C(c4cccnc4)=CC[C@@H]32)C1 [Abiraterone acetate]
- Cholesterol-free media + simvastatin (0.04 μM) [1, 17]: 1.209
- Complete Media [1, 18]: 0.9
- Difference [1, 16]: −0.31
- Cholesterol-free [2, 20]: 0.5232
- Complete [2, 21]: 1.307
- Difference [2, 26]: 0.78

Molecule: CC(C)Cn1cnc2c(N)nc3ccccc3c21 [Imiquimod (hydrochloride)]
- Cholesterol-free media + simvastatin (0.04 μM) [1]: 1.323
- Complete Media [1]: 1.16
- Difference [1]: −0.16
- Cholesterol-free [2]: 0.8815
- Complete [2]: 1.16
- Difference [2]: 0.28

Molecule: O=C(O)c1ccccc1Nc1cccc(C(F)(F)F)c1 [Flufenamic acid]
- Cholesterol-free media + simvastatin (0.04 μM) [1, 24]: 1.298
- Complete Media [1, 25]: 1.077
- Difference [1, 16]: −0.22
- Difference [2, 19]: −0.24
- Cholesterol-free [2, 12]: 1.258
- Complete ([2]; NCI-H292 cells, complete media): 1.021

Molecule: CCCc1nn(C)c2c(=O)[nH]c(-c3cc(S(=O)(=O)N4CCN(C)CC4)ccc3OCC)nc12 [Sildenafil]
- Cholesterol-free media + simvastatin (0.04 μM) [1, 3]: 1.23
- Complete Media [1, 4]: 1.131
- Difference [1, 16]: −0.10
- Difference [2, 6]: −0.63
- Cholesterol-free [2, 7]: 1.66
- Complete [2, 8]: 1.034

Molecule: Cn1c(=O)cc(N2CCC[C@@H](N)C2)n(Cc2cc(F)ccc2C#N)c1=O [Trelagliptin]
- Cholesterol-free media + simvastatin (0.04 μM) [1, 22]: 1.142
- Complete Media [1, 23]: 1.234
- Difference [1, 5]: 0.09
- Difference [2, 19]: −0.22
- Cholesterol-free [2, 12]: 0.9224
- Complete ([2]; NCI-H292 cells, complete media): 0.705

Molecule: Bedaquiline (fumarate)
- Cholesterol-free media + simvastatin (0.04 μM) [1, 22]: 0.9095
- Complete Media [1, 23]: 0.9785
- Difference [1, 5]: 0.07
- Cholesterol-free [2, 12]: 1.587
- Complete ([2]; NCI-H292 cells, complete media): 1.119
- Difference [2, 13]: −0.47

Molecule: O=C(O)Cc1ccccc1Nc1c(Cl)cccc1Cl [Diclofenac (potassium)]
- Cholesterol-free media + simvastatin (0.04 μM) [1, 9]: 1.093
- Complete Media [1, 10]: 1.041
- Difference [1, 11]: −0.05
- Difference [2, 19]: −0.03
- Cholesterol-free [2, 20]: 1.133
- Complete [2, 21]: 1.107

Molecule: Cl.NCC(O)c1ccc(O)c(O)c1 (racemic) [DL-Norepinephrine (hydrochloride)]
- Cholesterol-free media + simvastatin (0.04 μM) [1, 17]: 0.9652
- Complete Media [1, 18]: 0.176
- Difference [1, 16]: −0.79
- Cholesterol-free [2, 20]: 1.105
- Complete [2, 21]: 1.652
- Difference [2, 26]: 0.55

Molecule: N#CC[C@H](C1CCCC1)n1cc(-c2ncnc3[nH]ccc23)cn1 [Ruxolitinib]
- Cholesterol-free media + simvastatin (0.04 μM) [1, 3]: 0.6455
- Complete Media [1, 4]: 0.5664
- Difference [1, 16]: −0.08
- Difference [2, 19]: −0.01
- Cholesterol-free [2, 20]: 0.6188
- Complete [2, 21]: 0.6101
